Measurements as given in patent US7192906B2, “Substituted pyrazole derivatives, production process thereof, and herbicide compositions containing the derivatives” (SDS Biotech K.K., priority 2001, dated 2007).

system: Digitaria adscendens; assay: Test Example 2 upland soil treatment; type: in vivo; conditions: Table 5, upland soil treatment, index 0-5
Protocol: (§1) A plastic pot of 130 cm^2 was filled with upland soil. Subsequently, weed seeds of Setaria viridis, Digitaria adscendens, Chenopodium album and Stellaria media, and crop seeds of soybean (Glycine max) and wheat (Triticum aestivum), were sowed and covered with soil of about 1 cm thickness. On the next day after the sowing, the wettable powder prepared in Formulation Example 1 was diluted with water such that the amount of the active ingredient became 1 kg per hectare, and then uniformly applied to the soil surface. On the 21st day after the application, observation and evaluation were carried out according to the aforesaid criteria.
(§2) Herbicidal activity was evaluated based on the following criteria.
(§3) • 5: herbicidal effect of not less than 90%, or phytotoxicity of 90% or more • 4: herbicidal effect of not less than 70% and less than 90%, or phytotoxicity of 70% or more and less than 90% • 3: herbicidal effect of not less than 50% and less than 70%, or phytotoxicity of 50% or more and less than 70% • 2: herbicidal effect of not less than 30% and less than 50%, or phytotoxicity of 30% or more and less than 50% • 1: herbicidal effect of not less than 10% and less than 30%, or phytotoxicity of 10% or more and less than 30% • 0: herbicidal effect of not less than 0% and less than 10%, or phytotoxicity of 0% or more and less than 10%

`CNC(=O)C(Cn1ccc(-c2ccccc2)n1)=NOC` [Compound 13] was tested. Which “Herbicidal activity DA: Digitaria adscendens” value (shortened to “Herbicidal activity DA”) did it give?
Its value is 4 (herbicidal effect of not less than 70% and less than 90%, or phytotoxicity of 70% or more and less than 90%).

For `CCOC(CNC(=O)C(Cn1cc(C)c(-c2ccccc2)n1)=NOC)OCC` [Compound 28], which “Herbicidal activity DA” value is on record?
Its value is 4 (herbicidal effect of not less than 70% and less than 90%, or phytotoxicity of 70% or more and less than 90%).

system: Stellaria media; assay: Test Example 2 upland soil treatment; type: in vivo; conditions: Table 5, upland soil treatment, index 0-5
Protocol: as §1, §2, §3

For `CNC(=O)C(Cn1ccc(-c2ccccc2)n1)=NOC` [Compound 13], which “Herbicidal activity SM: Stellaria media” value is on record?
Its value is 5 (herbicidal effect of not less than 90%, or phytotoxicity of 90% or more).

For `CCOC(CNC(=O)C(Cn1cc(C)c(-c2ccccc2)n1)=NOC)OCC` [Compound 28], which “Herbicidal activity SM: Stellaria media” value is on record?
The value was 3 (herbicidal effect of not less than 50% and less than 70%, or phytotoxicity of 50% or more and less than 70%).

system: Setaria viridis; assay: Test Example 2 upland soil treatment; type: in vivo; conditions: Table 5, upland soil treatment, index 0-5
Protocol: as §1, §2, §3

How did the “Herbicidal activity SV: Setaria viridis” value turn out when `CNC(=O)C(Cn1ccc(-c2ccccc2)n1)=NOC` [Compound 13] was run?
The value was 4 (herbicidal effect of not less than 70% and less than 90%, or phytotoxicity of 70% or more and less than 90%).

For `CCOC(CNC(=O)C(Cn1cc(C)c(-c2ccccc2)n1)=NOC)OCC` [Compound 28], which “Herbicidal activity SV: Setaria viridis” value is on record?
The value was 3 (herbicidal effect of not less than 50% and less than 70%, or phytotoxicity of 50% or more and less than 70%).

system: Chenopodium album; assay: Test Example 2 upland soil treatment; type: in vivo; conditions: Table 5, upland soil treatment, index 0-5
Protocol: as §1, §2, §3

For `CNC(=O)C(Cn1ccc(-c2ccccc2)n1)=NOC` [Compound 13], which “Herbicidal activity CA: Chenopodium album” value (“Herbicidal activity CA” for short) is on record?
Its value is 5 (herbicidal effect of not less than 90%, or phytotoxicity of 90% or more).

For `CCOC(CNC(=O)C(Cn1cc(C)c(-c2ccccc2)n1)=NOC)OCC` [Compound 28], which “Herbicidal activity CA” value is on record?
Its value is 4 (herbicidal effect of not less than 70% and less than 90%, or phytotoxicity of 70% or more and less than 90%).

system: Digitaria adscendens; assay: Test Example 1 upland field foliage treatment; type: in vivo; conditions: Table 4, upland field foliage treatment, index 0-5
Protocol: as §1, with “14th” for “next”, “plant leaf surfaces.” for “soil surface.”, “criteria described below.” for “aforesaid criteria.”
as §2, §3

Which “Herbicidal activity DA” value does the source give for `CNC(=O)C(Cn1ccc(-c2ccccc2)n1)=NOC` [Compound 13] here?
Its value is 4 (herbicidal effect of not less than 70% and less than 90%, or phytotoxicity of 70% or more and less than 90%).

Which “Herbicidal activity DA” value does the source give for `CCOC(CNC(=O)C(Cn1cc(C)c(-c2ccccc2)n1)=NOC)OCC` [Compound 28] here?
Its value is 3 (herbicidal effect of not less than 50% and less than 70%, or phytotoxicity of 50% or more and less than 70%).

system: Stellaria media; assay: Test Example 1 upland field foliage treatment; type: in vivo; conditions: Table 4, upland field foliage treatment, index 0-5
Protocol: as §1, with “14th” for “next”, “plant leaf surfaces.” for “soil surface.”, “criteria described below.” for “aforesaid criteria.”
as §2, §3

For `CNC(=O)C(Cn1ccc(-c2ccccc2)n1)=NOC` [Compound 13], which “Herbicidal activity SM: Stellaria media” value is on record?
The value was 4 (herbicidal effect of not less than 70% and less than 90%, or phytotoxicity of 70% or more and less than 90%).

`CCOC(CNC(=O)C(Cn1cc(C)c(-c2ccccc2)n1)=NOC)OCC` [Compound 28] was tested. Which “Herbicidal activity SM: Stellaria media” value did it give?
Its value is 3 (herbicidal effect of not less than 50% and less than 70%, or phytotoxicity of 50% or more and less than 70%).

system: Setaria viridis; assay: Test Example 1 upland field foliage treatment; type: in vivo; conditions: Table 4, upland field foliage treatment, index 0-5
Protocol: as §1, with “14th” for “next”, “plant leaf surfaces.” for “soil surface.”, “criteria described below.” for “aforesaid criteria.”
as §2, §3

`CNC(=O)C(Cn1ccc(-c2ccccc2)n1)=NOC` [Compound 13] was tested. Which “Herbicidal activity SV: Setaria viridis” value did it give?
The value was 3 (herbicidal effect of not less than 50% and less than 70%, or phytotoxicity of 50% or more and less than 70%).

`CCOC(CNC(=O)C(Cn1cc(C)c(-c2ccccc2)n1)=NOC)OCC` [Compound 28] was tested. Which “Herbicidal activity SV: Setaria viridis” value did it give?
Its value is 3 (herbicidal effect of not less than 50% and less than 70%, or phytotoxicity of 50% or more and less than 70%).

system: Chenopodium album; assay: Test Example 1 upland field foliage treatment; type: in vivo; conditions: Table 4, upland field foliage treatment, index 0-5
Protocol: as §1, with “14th” for “next”, “plant leaf surfaces.” for “soil surface.”, “criteria described below.” for “aforesaid criteria.”
as §2, §3

`CNC(=O)C(Cn1ccc(-c2ccccc2)n1)=NOC` [Compound 13] was tested. Which “Herbicidal activity CA” value did it give?
Its value is 4 (herbicidal effect of not less than 70% and less than 90%, or phytotoxicity of 70% or more and less than 90%).

With `CCOC(CNC(=O)C(Cn1cc(C)c(-c2ccccc2)n1)=NOC)OCC` [Compound 28] as the compound, how does the “Herbicidal activity CA” value read?
Its value is 4 (herbicidal effect of not less than 70% and less than 90%, or phytotoxicity of 70% or more and less than 90%).

system: soybean (Glycine max); assay: Test Example 1 upland field foliage treatment, crop phytotoxicity; type: in vivo; conditions: Table 4, upland field foliage treatment, index 0-5
Protocol: as §1, with “14th” for “next”, “plant leaf surfaces.” for “soil surface.”, “criteria described below.” for “aforesaid criteria.”
as §2, §3

For `CNC(=O)C(Cn1ccc(-c2ccccc2)n1)=NOC` [Compound 13], which “Herbicidal activity (phytotoxicity) GM: Soybean (Glycine max)” value (“Herbicidal activity (phytotoxicity) GM” for short) is on record?
Its value is 0 (herbicidal effect of not less than 0% and less than 10%, or phytotoxicity of 0% or more and less than 10%).

How did the “Herbicidal activity (phytotoxicity) GM” value turn out when `CCOC(CNC(=O)C(Cn1cc(C)c(-c2ccccc2)n1)=NOC)OCC` [Compound 28] was run?
Its value is 0 (herbicidal effect of not less than 0% and less than 10%, or phytotoxicity of 0% or more and less than 10%).

system: wheat (Triticum aestivum); assay: as above; type: in vivo; conditions: Table 4, upland field foliage treatment, index 0-5
Protocol: as §1, with “14th” for “next”, “plant leaf surfaces.” for “soil surface.”, “criteria described below.” for “aforesaid criteria.”
as §2, §3

How did the “Herbicidal activity (phytotoxicity) TA: Wheat (Triticum aestivum)” value (“Herbicidal activity (phytotoxicity) TA” for short) turn out when `CNC(=O)C(Cn1ccc(-c2ccccc2)n1)=NOC` [Compound 13] was run?
Its value is 0 (herbicidal effect of not less than 0% and less than 10%, or phytotoxicity of 0% or more and less than 10%).

With `CCOC(CNC(=O)C(Cn1cc(C)c(-c2ccccc2)n1)=NOC)OCC` [Compound 28] as the compound, how does the “Herbicidal activity (phytotoxicity) TA” value read?
Its value is 0 (herbicidal effect of not less than 0% and less than 10%, or phytotoxicity of 0% or more and less than 10%).

system: soybean (Glycine max); assay: Test Example 2 upland soil treatment, crop phytotoxicity; type: in vivo; conditions: Table 5, upland soil treatment, index 0-5
Protocol: as §1, §2, §3

`CNC(=O)C(Cn1ccc(-c2ccccc2)n1)=NOC` [Compound 13] was tested. Which “Herbicidal activity (phytotoxicity) GM” value did it give?
Its value is 0 (herbicidal effect of not less than 0% and less than 10%, or phytotoxicity of 0% or more and less than 10%).

`CCOC(CNC(=O)C(Cn1cc(C)c(-c2ccccc2)n1)=NOC)OCC` [Compound 28] was tested. Which “Herbicidal activity (phytotoxicity) GM” value did it give?
Its value is 0 (herbicidal effect of not less than 0% and less than 10%, or phytotoxicity of 0% or more and less than 10%).

system: wheat (Triticum aestivum); assay: as above; type: in vivo; conditions: Table 5, upland soil treatment, index 0-5
Protocol: as §1, §2, §3

For `CNC(=O)C(Cn1ccc(-c2ccccc2)n1)=NOC` [Compound 13], which “Herbicidal activity (phytotoxicity) TA” value is on record?
Its value is 0 (herbicidal effect of not less than 0% and less than 10%, or phytotoxicity of 0% or more and less than 10%).

For `CCOC(CNC(=O)C(Cn1cc(C)c(-c2ccccc2)n1)=NOC)OCC` [Compound 28], which “Herbicidal activity (phytotoxicity) TA” value is on record?
Its value is 0 (herbicidal effect of not less than 0% and less than 10%, or phytotoxicity of 0% or more and less than 10%).
